Measured values taken from paper PMC9481151, “Discovery of new symmetrical and asymmetrical nitrile-containing 1,4-dihydropyridine derivatives as dual kinases and P-glycoprotein inhibitors: synthesis, in vitro assays, and in silico studies” (Journal of Enzyme Inhibition and Medicinal Chemistry, 2022).
“And” between values parts separate entries of the source, which are not always exact repeats. Equal values may be shown once.

Experiments:
K-562 = assay: NCI single dose (10 µM) SRB screen; type: cell-based, human; conditions: leukaemia, 48 h
MOLT-4 = assay: NCI single dose (10 µM) SRB screen; type: cell-based, human; conditions: leukaemia, 48 h
SR = assay: NCI single dose (10 µM) SRB screen; type: cell-based, human; conditions: leukaemia, 48 h
EKVX = assay: NCI single dose (10 µM) SRB screen; type: cell-based, human; conditions: non-small cell lung cancer, 48 h
HOP-92 = assay: NCI single dose (10 µM) SRB screen; type: cell-based, human; conditions: non-small cell lung cancer, 48 h
NCI-H226 = assay: NCI single dose (10 µM) SRB screen; type: cell-based, human; conditions: non-small cell lung cancer, 48 h
NCI-H23 = assay: NCI single dose (10 µM) SRB screen; type: cell-based, human; conditions: non-small cell lung cancer, 48 h
NCI-H322M = assay: NCI single dose (10 µM) SRB screen; type: cell-based; conditions: non-small cell lung cancer, 48 h
NCI-H460 = assay: NCI single dose (10 µM) SRB screen; type: cell-based, human; conditions: non-small cell lung cancer, 48 h
NCI-H522 = assay: NCI single dose (10 µM) SRB screen; type: cell-based, human; conditions: non-small cell lung cancer, 48 h
COLO 205 = assay: NCI single dose (10 µM) SRB screen; type: cell-based, human; conditions: colon cancer, 48 h
HCC-2998 = assay: NCI single dose (10 µM) SRB screen; type: cell-based, human; conditions: colon cancer, 48 h
HCT-116 = assay: NCI single dose (10 µM) SRB screen; type: cell-based, human; conditions: colon cancer, 48 h
HCT-15 = assay: NCI single dose (10 µM) SRB screen; type: cell-based, human; conditions: colon cancer, 48 h
HT29 = assay: NCI single dose (10 µM) SRB screen; type: cell-based, human; conditions: colon cancer, 48 h
KM12 = assay: NCI single dose (10 µM) SRB screen; type: cell-based, human; conditions: colon cancer, 48 h
SW-620 = assay: NCI single dose (10 µM) SRB screen; type: cell-based, human; conditions: colon cancer, 48 h
SF-268 = assay: NCI single dose (10 µM) SRB screen; type: cell-based, human; conditions: CNS cancer, 48 h
SF-539 = assay: NCI single dose (10 µM) SRB screen; type: cell-based, human; conditions: CNS cancer, 48 h
SNB-19 = assay: NCI single dose (10 µM) SRB screen; type: cell-based, human; conditions: CNS cancer, 48 h
U251 = assay: NCI single dose (10 µM) SRB screen; type: cell-based, human; conditions: CNS cancer, 48 h
LOX IMVI = assay: NCI single dose (10 µM) SRB screen; type: cell-based, human; conditions: melanoma, 48 h
MALME-3M = assay: NCI single dose (10 µM) SRB screen; type: cell-based, human; conditions: melanoma, 48 h
M14 = assay: NCI single dose (10 µM) SRB screen; type: cell-based, human; conditions: melanoma, 48 h
SK-MEL-2 = assay: NCI single dose (10 µM) SRB screen; type: cell-based, human; conditions: melanoma, 48 h
SK-MEL-5 = assay: NCI single dose (10 µM) SRB screen; type: cell-based, human; conditions: melanoma, 48 h
UACC-257 = assay: NCI single dose (10 µM) SRB screen; type: cell-based, human; conditions: melanoma, 48 h
UACC-62 = assay: NCI single dose (10 µM) SRB screen; type: cell-based, human; conditions: melanoma, 48 h
IGROV1 = assay: NCI single dose (10 µM) SRB screen; type: cell-based, human; conditions: ovarian cancer, 48 h
OVCAR-3 = assay: NCI single dose (10 µM) SRB screen; type: cell-based, human; conditions: ovarian cancer, 48 h
OVCAR-4 = assay: NCI single dose (10 µM) SRB screen; type: cell-based, human; conditions: ovarian cancer, 48 h
OVCAR-5 = assay: NCI single dose (10 µM) SRB screen; type: cell-based, human; conditions: ovarian cancer, 48 h
OVCAR-8 = assay: NCI single dose (10 µM) SRB screen; type: cell-based, human; conditions: ovarian cancer, 48 h
NCI/ADR-RES = assay: NCI single dose (10 µM) SRB screen; type: cell-based, human; conditions: ovarian cancer, 48 h
786-0 = assay: NCI single dose (10 µM) SRB screen; type: cell-based, human; conditions: renal cancer, 48 h
A498 = assay: NCI single dose (10 µM) SRB screen; type: cell-based, human; conditions: renal cancer, 48 h
ACHN = assay: NCI single dose (10 µM) SRB screen; type: cell-based, human; conditions: renal cancer, 48 h
CAKI-1 = assay: NCI single dose (10 µM) SRB screen; type: cell-based, human; conditions: renal cancer, 48 h
RXF 393 = assay: NCI single dose (10 µM) SRB screen; type: cell-based, human; conditions: renal cancer, 48 h
SN12C = assay: NCI single dose (10 µM) SRB screen; type: cell-based, human; conditions: renal cancer, 48 h
TK-10 = assay: NCI single dose (10 µM) SRB screen; type: cell-based, human; conditions: renal cancer, 48 h
UO-31 = assay: NCI single dose (10 µM) SRB screen; type: cell-based, human; conditions: renal cancer, 48 h
PC-3 = assay: NCI single dose (10 µM) SRB screen; type: cell-based, human; conditions: prostate cancer, 48 h
DU-145 = assay: NCI single dose (10 µM) SRB screen; type: cell-based, human; conditions: prostate cancer, 48 h
MCF7 = assay: NCI single dose (10 µM) SRB screen; type: cell-based, human; conditions: breast cancer, 48 h
MDA-MB-231 = assay: NCI single dose (10 µM) SRB screen; type: cell-based, human; conditions: breast cancer, 48 h
HS578T = assay: NCI single dose (10 µM) SRB screen; type: cell-based, human; conditions: breast cancer, 48 h
T-47D = assay: NCI single dose (10 µM) SRB screen; type: cell-based, human; conditions: breast cancer, 48 h
MDA-MB-468 = assay: NCI single dose (10 µM) SRB screen; type: cell-based, human; conditions: breast cancer, 48 h
NCI 60 cancer cell lines = assay: NCI single dose (10 µM) SRB screen, mean over panel; type: cell-based, human; conditions: mean over 60 cell lines, 48 h
Escherichia coli = assay: Agar well diffusion method
Candida albicans = assay: Agar well diffusion method
Aspergillus flavus = assay: Agar well diffusion method

Compound: CCOC(=O)C1=C(C)NC(C)=C(C(=O)OC)C1c1cccc(C#N)c1 (racemic) [Compound 2g, (±)-3-Ethyl 5-methyl 4-(3-cyanophenyl)-2,6-dimethyl-1,4-dihydropyridine-3,5-dicarboxylate]
- GI% K-562 (K-562): – (Only GI% ≥ 10 are shown)
- GI% MOLT-4 (MOLT-4): – (Only GI% ≥ 10 are shown)
- GI% SR (SR): 14%
- GI% EKVX (EKVX): – (Only GI% ≥ 10 are shown)
- GI% HOP-92 (HOP-92): – (Only GI% ≥ 10 are shown)
- GI% NCI-H226 (NCI-H226): – (Only GI% ≥ 10 are shown)
- GI% NCI-H23 (NCI-H23): – (Only GI% ≥ 10 are shown)
- GI% NCI-H322M (NCI-H322M): – (Only GI% ≥ 10 are shown)
- GI% NCI-H460 (NCI-H460): – (Only GI% ≥ 10 are shown)
- GI% NCI-H522 (NCI-H522): – (Only GI% ≥ 10 are shown)
- GI% COLO 205 (COLO 205): – (Only GI% ≥ 10 are shown)
- GI% HCC-2998 (HCC-2998): – (Only GI% ≥ 10 are shown)
- GI% HCT-116 (HCT-116): – (Only GI% ≥ 10 are shown)
- GI% HCT-15 (HCT-15): – (Only GI% ≥ 10 are shown)
- GI% HT29 (HT29): – (Only GI% ≥ 10 are shown)
- GI% KM12 (KM12): – (Only GI% ≥ 10 are shown)
- GI% SW-620 (SW-620): – (Only GI% ≥ 10 are shown)
- GI% SF-268 (SF-268): – (Only GI% ≥ 10 are shown)
- GI% SF-539 (SF-539): – (Only GI% ≥ 10 are shown)
- GI% SNB-19 (SNB-19): – (Only GI% ≥ 10 are shown)
- GI% U251 (U251): – (Only GI% ≥ 10 are shown)
- GI% LOX IMVI (LOX IMVI): – (Only GI% ≥ 10 are shown)
- GI% MALME-3M (MALME-3M): – (Only GI% ≥ 10 are shown)
- GI% M14 (M14): – (Only GI% ≥ 10 are shown)
- GI% SK-MEL-2 (SK-MEL-2): – (Only GI% ≥ 10 are shown)
- GI% SK-MEL-5 (SK-MEL-5): – (Only GI% ≥ 10 are shown)
- GI% UACC-257 (UACC-257): – (Only GI% ≥ 10 are shown)
- GI% UACC-62 (UACC-62): – (Only GI% ≥ 10 are shown)
- GI% IGROV1 (IGROV1): – (Only GI% ≥ 10 are shown)
- GI% OVCAR-3 (OVCAR-3): – (Only GI% ≥ 10 are shown)
- GI% OVCAR-4 (OVCAR-4): – (Only GI% ≥ 10 are shown)
- GI% OVCAR-5 (OVCAR-5): – (Only GI% ≥ 10 are shown)
- GI% OVCAR-8 (OVCAR-8): – (Only GI% ≥ 10 are shown)
- GI% NCI/ADR-RES (NCI/ADR-RES): – (Only GI% ≥ 10 are shown)
- GI% 786-0 (786-0): – (Only GI% ≥ 10 are shown)
- GI% A498 (A498): – (Only GI% ≥ 10 are shown)
- GI% ACHN (ACHN): – (Only GI% ≥ 10 are shown)
- GI% CAKI-1 (CAKI-1): – (Only GI% ≥ 10 are shown)
- GI% RXF 393 (RXF 393): – (Only GI% ≥ 10 are shown)
- GI% SN12C (SN12C): – (Only GI% ≥ 10 are shown)
- GI% TK-10 (TK-10): – (Only GI% ≥ 10 are shown)
- GI% UO-31 (UO-31): – (Only GI% ≥ 10 are shown)
- GI% PC-3 (PC-3): – (Only GI% ≥ 10 are shown)
- GI% DU-145 (DU-145): – (Only GI% ≥ 10 are shown)
- GI% MCF7 (MCF7): 11%
- GI% MDA-MB-231 (MDA-MB-231): – (Only GI% ≥ 10 are shown)
- GI% HS578T (HS578T): 10%
- GI% T-47D (T-47D): – (Only GI% ≥ 10 are shown)
- GI% MDA-MB-468 (MDA-MB-468): – (Only GI% ≥ 10 are shown)
- Mean GI% (NCI 60 cancer cell lines): −1%
- zone of inhibition at 1000 µg/mL (Escherichia coli; Escherichia coli, 24 h, read-out: Diameter of inhibition zone, E. coli): 19 mm
- % activity index, E. coli (Escherichia coli; relative to ciprofloxacin): 73% and 73.1%
- zone of inhibition at 1000 µg/mL (Candida albicans; Candida albicans, 24 h, read-out: Diameter of inhibition zone, C. albicans): 23 mm
- % activity index, C. albicans (Candida albicans; relative to clotrimazole): 85% and 85.2%
- zone of inhibition at 1000 µg/mL (Aspergillus flavus; Aspergillus flavus, 24 h, read-out: Diameter of inhibition zone, A. flavus): 24 mm
- % activity index, A. flavus (Aspergillus flavus; relative to clotrimazole): 96%
